One series deals with B16 melanoma. Kind of series: Treatment of established B16 skin tumors with MNAs. Particulars: MNA once weekly for three weeks; for survival: untreated 100% mortality.
Series [1] has as its target T1, NK1R (Mus musculus, UniProt P30548).
T1 construct: from tissue
The experiment in a line: Histology of skin and skin draining lymph nodes of B6-WT mice sensitized with DNCB with or without SarSP. It is filed as in vivo. The source says: (A & C: H and E, 200×; Insets, 1,000×; B & D: TB, 200×; Insets 1,000×; NT refers to non-treated mice.)
The effect of different treatments in B6-WT mice was compared with n=6/experimental group.

Series [2] has as its target T2, NK1R (Homo sapiens, UniProt P25103).
T2 construct: adding SarSP to human mixed leukocyte cultures (MLC) using skin DC as stimulators of allogeneic naïve CD4 T cells; endogenous in cells; host or cells: human skin dendritic cells from skin explants, co-cultured with allogeneic T cells (MLC)
The experiment in a line: Human mixed leukocyte cultures (MLC), skin DC as stimulators of allogeneic naive CD4 T cells, with SarSP. It is filed as cell-based. Particulars: SarSP added to MLC. The text has this:
FIGS. 42A and 42B show human skin DCs express functional NK1R. […] Conventional rigid MNA with pyramid geometry can suffer from limited skin penetration, and poor and unreliable cargo delivery capacity compared to the novel microneedle structures disclosed herein. For example, in some embodiments, the delivery systems disclosed herein integrate biologics into dissolvable carboxymethyl-cellulose (CMC) microneedles with obelisk geometries.

The target in series [3] is T1, NK1R. Kind of series: DTH reaction in mice sensitized with DNCB with NK1R agonist SarSP. The class given is in vivo. The following applies: C57BL/6 (B6) mice sensitized with DNCB in the presence of SarSP (10^−9 M). The text has this:
The effect of different treatments in B6-WT mice was compared with n=6/experimental group. […] The inflammatory infiltrate was composed of leukocytes including polimorphonuclear neutrophils (PMN) and eosinophils as shown in the inset of FIG. 45A.
Means±1SD of 6 mice/experimental group are illustrated, with three independent experiments performed.

Series [4] can be described thus: MNA DNBS dose response, ear thickness increase and histology. It is filed as in vivo, mouse. The following applies: MNAs with 25 ng, 50 ng and 100 ng tested; ear thickness increase. How it is done:
These figures illustrate an exemplary MNA DNBS dose response, by indicating an optimal lowest dose of hapten contained in MNAs capable of inducing effective skin acute and chronic inflammation. In particular, FIG. 51A charts MNA DNBS doses as a percentage of ear thickness increase. FIG. 51B provides histological detail of treated ear skin following the application of MNAs with the three different doses of DNBS (25 ng, 50 ng, and 100 ng).

Series [5] can be described thus: Dye release from MNAs inserted into 4% agar test-gels. The class given is physicochemical. Particulars: dually loaded MNA. The text has this:
To illustrate the delivery of multiple drugs with distinct release kinetics, MNAs were fabricated to delivery two distinct cargos by distinct release kinetics. Specifically, MNAs were fabricated to release the marker Toluidine Blue in an initial burst, followed by a sustained release of the marker FD&C Red40. Dyes were directly loaded in the MNA scaffold matrix (in this case CMC) of the needle tips and in some cases a second dye, encapsulated in a sustained release polymer was layer directly below. MNAs were inserted into 4% agar test-gels and removed after 1 min.
Images of dye diffusion were collected at the indicated time points (FIG. 39A). As shown in FIGS. 39A-C, FD&C Red40 (FIG. 39A) and toluidine blue (FIG. 39B), tracer dyes were tip-loaded in MNAs for immediate release. Alternatively, MNAs were fabricated with toluidine blue tip-loaded and FD&C Red40 encapsulated in a sustained release polymer (FIG. 39C). MNAs were inserted into 4% agar test-gel and removed after 1 min. Images were collected at the indicated time-points. Tip-loaded cargos were rapidly released from the MNAs and dispersed progressively in the gel (FIG. 39A and B). […] Upper panels depict images of microneedles from MNAs before application. The middle images are the imprints of the arrays 1 minute after application and MNA removal. Lower panels depicted the indicated representative magnified images at the indicated time points.

Series [6] deals with OVA-specific CTL activity. Kind of series: OVA-specific CTL activity in vivo after CMC-microneedle array immunization. Particulars: mice immunized on ears with pyramidal arrays, boosted one week later.
A further series has as its system epidermal cells. The following applies: 5 mg/g of CMC, about 140 μg per array; 72 hours of exposure.

The source of these data is patent US11744889B2, “Skin microenvironment targeted delivery for promoting immune and other responses” (University of Pittsburgh—Of the Commonwealth System of …, priority 2016, dated 2023).

“Also recorded” adds a separate entry of the source.

T1 sequence (P30548 whole entry): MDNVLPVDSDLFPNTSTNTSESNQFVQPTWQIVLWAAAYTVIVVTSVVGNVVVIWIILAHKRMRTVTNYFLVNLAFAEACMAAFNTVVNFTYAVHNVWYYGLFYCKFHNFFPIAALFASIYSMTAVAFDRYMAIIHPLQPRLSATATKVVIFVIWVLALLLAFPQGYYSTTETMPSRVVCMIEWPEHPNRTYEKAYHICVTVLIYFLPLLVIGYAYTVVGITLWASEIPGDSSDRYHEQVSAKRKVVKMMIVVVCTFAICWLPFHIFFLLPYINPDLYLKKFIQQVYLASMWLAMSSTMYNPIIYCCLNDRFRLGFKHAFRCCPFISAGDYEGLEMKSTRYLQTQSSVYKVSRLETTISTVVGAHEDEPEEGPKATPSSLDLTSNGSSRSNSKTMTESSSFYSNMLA
T2 sequence (P25103 whole entry): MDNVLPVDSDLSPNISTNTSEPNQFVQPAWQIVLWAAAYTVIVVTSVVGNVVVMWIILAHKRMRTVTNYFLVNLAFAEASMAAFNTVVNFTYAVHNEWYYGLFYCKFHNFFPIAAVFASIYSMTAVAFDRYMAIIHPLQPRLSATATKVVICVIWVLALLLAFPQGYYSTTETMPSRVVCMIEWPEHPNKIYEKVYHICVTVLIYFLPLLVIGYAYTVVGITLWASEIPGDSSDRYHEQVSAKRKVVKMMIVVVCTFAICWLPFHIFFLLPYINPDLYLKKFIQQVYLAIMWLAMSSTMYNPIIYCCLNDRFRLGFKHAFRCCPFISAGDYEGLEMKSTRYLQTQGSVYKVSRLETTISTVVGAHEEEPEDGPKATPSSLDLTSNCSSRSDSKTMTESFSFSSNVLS
Experimental for B16 melanoma: B16 skin tumors were established in normal mice by injection. Visible established cutaneous tumors were treated once weekly for three weeks with MNAs containing either doxorubicin alone, Poly(I:C) alone, or doxorubicin and Poly(I:C) incorporated into the same MNA. The doxorubicin dose chosen corresponds to an MNA dose that induces apoptosis in human skin without causing necrosis. Tumor growth and survival were measured regularly for the duration of the study.
Experimental for epidermal cells: Cytoxan® was integrated at a concentration of 5 mg/g of CMC, enabling delivery of approximately about 140 μg per array. […] Living human skin organ cultures were used to assess the cytotoxicity of Cytoxan®. Cytoxan® was delivered by application of arrays to skin explants as we previously described. Arrays and residual material were removed 5 minutes after application, and after 72 hours of exposure, culture living skin explants were cryo-sectioned and fixed.

As for `COc1cccc2c1C(=O)c1c(O)c3c(c(O)c1C2=O)C[C@@](O)(C(=O)CO)C[C@@H]3O[C@H]1C[C@H](N)[C@H](O)[C@H](C)O1` [doxorubicin], in the series on B16 melanoma, the tumor growth result is “slowed tumor growth” and the survival is 30%.
For the compound Sar^9 Met(O2)^11—SP [SarSP], on NK1R [1] (B6-WT mice), the “MC activation and degranulation in skin” value was “triggered MC activation and degranulation”. Besides, the “inflammatory response in skin” value at NK1R [1] (agent administered alone, B6-WT mice) was “did not induce inflammatory response”. Moreover, at NK1R [1] (co-administration with DNCB), the “inflammatory infiltrate in skin draining lymph node” value was “significantly increases the inflammatory infiltrate”. For the same compound, the “inflammatory response in skin” value on NK1R [1] (co-administration with DNCB, B6-WT mice) was “significantly increased the number of inflammatory cells; also recorded: dramatically increased the magnitude of the inflammatory response and tissue damage”. Besides, the “number of MC in draining lymph nodes” value on NK1R [1] (mouse, in vivo) is listed as “induced an increased number of MC”. On NK1R [2], the IFN-γ secretion result is given as “significantly augmented” and the Tcell proliferation result is recorded as “significantly augmented”. The DTH reactions entry on NK1R [3] is on record as “significantly increased DTH reactions”.
As to `O=[N+]([O-])c1ccc(S(=O)(=O)O)c([N+](=O)[O-])c1` [DNBS, 2,4-Dinitrobenzenesulfonic acid], in series [4], the “optimal, lowest dose inducing skin acute and chronic inflammation” value is 50 ng.
As for `Cc1cc2nc3ccc(N(C)C)cc3[s+]c2cc1N.[Cl-]` [Toluidine Blue], the “release of tip-loaded dye” value in series [5] (dye in CMC in the needle tip) is “released in an initial burst”.
On to `COc1cc(S(=O)(=O)[O-])c(C)cc1N=Nc1c(O)ccc2cc(S(=O)(=O)[O-])ccc12.[Na+].[Na+]` [FD&C Red40], for which, in series [5] (dye encapsulated in sustained release polymer), the “release of encapsulated dye” value is on record as “released slowly over an extended time period”. For the same compound, the “period of release from depot” value in series [5] (dye in underlying layer of sustained release polymer) came out at 10 days.
Regarding “particulate OVA: particulate ovalbumin, model antigen, in CMC microneedle arrays”, the “OVA-specific CTL activity in vivo” value in series [6] is “Significant OVA-specific CTL activity”.
As for `O=P1(N(CCCl)CCCl)NCCCO1` (stereo not shown) [Cytoxan®, cyclophosphamide], the “apoptosis of epidermal cells (TUNEL)” value in the series with epidermal cells is on record as “extensive apoptosis of epidermal cells”.
In the case of “soluble OVA: soluble ovalbumin, model antigen, in CMC microneedle arrays”, in series [6], the “OVA-specific CTL activity in vivo” value is reported as “Significant OVA-specific CTL activity”.
For the compound Poly(I:C), in the series on B16 melanoma, the tumor growth result is recorded as “slowed tumor growth” and the survival is reported as 50%.
